How the values were obtained:
[1] = biological target: T1, P. falciparum formate–nitrite transporter (PfFNT) (Plasmodium falciparum, UniProt O77389, T106A); assay: ITC with purified mutant protein; format: binding
T1 construct: gene PF3D7_0316600; PfFNT T106A mutant, purified as wild type (full-length, N-terminal Strep-tag)

[2] = biological target: T2, P. falciparum formate–nitrite transporter (PfFNT) (Plasmodium falciparum, UniProt O77389); assay: ITC with purified protein; cryo-EM structure of the complex at […] Å; format: binding
T2 construct: gene PF3D7_0316600; full-length PfFNT, N-terminal Strep-tag; residues 7 to 293 modelled (apo structure); homopentamer

[3] = biological target: the molecule itself; assay: cryo-EM structure; purified PfFNT in GDN detergent (25 mM Tris pH 8.0, 150 mM NaCl, 0.06% GDN), incubated with 250 mM sodium lactate before grid preparation (no lactate density: apo form); C5 symmetry; 2.3 Å

**Q.** For `COc1ccc2c(c1)OC(O)(C(F)(F)C(F)(F)F)CC2=O` (stereo not drawn) [MMV007839], which Kd [1] is on record?
**A.** Its Kd is 80.8 nM.

**Q.** And the Kd [2]?
**A.** Its Kd is ~7.18 nM.

B1: Plasmodium falciparum formate–nitrite transporter (PfFNT) (natural protein, P. falciparum, UniProt O77389 1-309, looked up)
chain: MPPNNSKYVLDPVSIKSVCGGEESYIRCVEYGKKKAHYSNLNLLAKAILAGMFVGLCAHASGIAGGLFYYHKLREIVGASMSVFVYGFTFPIAFMCIICTGSDLFTGNTLAVTMALYEKKVKLLDYLRVMTISLFGNYVGAVSFAFFVSYLSGAFTNVHAVEKNHFFQFLNDIAEKKVHHTFVECVSLAVGCNIFVCLAVYFVLTLKDGAGYVFSVFFAVYAFAIAGYEHIIANIYTLNIALMVNTKITVYQAYIKNLLPTLLGNYIAGAIVLGLPLYFIYKEHYYNFERSKRDNNDAQMKSLSIELRN
notes: PfFNT, lactate transporter of P. falciparum, UniProt O77389, encoded by pf3D7_0316600; full-length protein from codon-optimized cDNA; residues 7 to 293 of each protomer were assigned to the density map; Homopentamer in the cryo-EM structures; also called P. falciparum lactate transporter; wild-type PfFNT
**Q.** How did the “stoichiometry N” value [3] turn out when B1 was run?
**A.** The value was 5.

— article PMC8428694, “Structural characterization of the Plasmodium falciparum lactate transporter PfFNT alone and in complex with antimalarial compound MMV007839 reveals its inhibition mechanism” (PLoS Biology, 2021)
